In US12630547B2, “RAS protein degraders, pharmaceutical compositions thereof, and their therapeutic applications” (BioTheryX, Inc., priority 2019, dated 2026):
Where two headings read alike, the source gives them in different places.

How the values were obtained:
Type in all cases: cell-based
H23 cells = assay: Cell viability assay (CELLTITER-GLO), H23 cells; conditions: Table 4, 3 days
How it was run: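 Luminescent CellTiter-Glo readout after 3-day compound treatment (37° C, 5% CO2) of H23 cells plated at 4,000 cells/well in RPMI 1640 plus 10% FBS, DMSO as control. IC50 values given as categorical ranges.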

MV-4-11 cells = assay: Cell viability assay (CELLTITER-GLO), MV-4-11 cells; conditions: Homo sapiens, MV4-11, 72 h; Table 1; compound at 10 μM, 3 days; read-out: Effect on MV-4-11 cell viability (% DMSO)
Experimental: MOLM-13 cells, MV-4-11 cells, H23, and H358 cells were independently cultured in RPMI 1640 media supplemented with 10% fetal bovine serum, streptomycin and penicillin. The cells were plated in white walled 96-well plates at 4,000 cells/well. The cells were incubated in DMSO (control) or a compound for 3 days at 37° C. under 5% CO2. A CELLTITER-GLO® reagent (100 μL) was then added to each well. After a 10 min incubation with shaking, luminescence was measured using an ENVISION® multimode plate reader.
In Tables 1 and 2, each compound was tested at 10 μM; and in Table 3, each compound was tested at 1 μM. In Tables 1 to 3, the cell viability values as % DMSO are reported as “A,” “B,” “C,” or “D;” where “A” represents a % viability value of less than 10%; “B” represents a % viability value of no less than 10% and less than 25%; “C” represents a % viability value of no less than 25% and less than 50%; and “D” represents a % viability value of no less than 50%. Compound A is […]

MOLM-13 cells = assay: Cell viability assay (CELLTITER-GLO), MOLM-13 cells; conditions: Homo sapiens, MOLM-13, 72 h, 3 days, read-out: Effect on MOLM-13 cell viability (% DMSO); for viability at 10 µM: compound at 10 μM; for viability at 1 µM: Table 3, compound at 1 μM
How it was run: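 Viability, as % of DMSO control, was read by CellTiter-Glo luminescence after a 3-day compound exposure (single dose of 10 μM or 1 μM) at 37 °C. Cells plated at 4,000/well in RPMI 1640 with 10% FBS. Results reported as categories A <10%, B 10–<25%, C 25–<50%, D ≥50%.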

H358 cells = assay: Cell viability assay (CELLTITER-GLO), H358 cells; conditions: 3 days; for viability at 10 µM: Table 1, compound at 10 μM, read-out: Effect on H358 cell viability (% DMSO)
How it was run: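 Luminescent ATP read-out (CellTiter-Glo) after 3-day incubation at 37 °C of H358 cells plated at 4,000/well in RPMI 1640 with 10% FBS. Values are either IC50 bins (A ≤1 μM through D >10 μM) or % of DMSO viability at 10 μM or 1 μM, bins A <10% through D ≥50%.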

KRAS protein = biological target: T1, KRAS protein (Homo sapiens, UniProt P01116, G12C); assay: Protein degradation assay (western blot) in H358 cells; conditions: 1 μM, 24 h
T1 construct: endogenous in cells; host or cells: H358 cells
Experimental: H358 cells were grown in RPMI 1640 media supplemented with 10% fetal bovine serum, streptomycin, and penicillin. The cells were plated in 10 cm plates in the growth media. The next day, the cells were rinsed in 1× PBS with the media replaced by RPMI1640 supplemented with 2.5% fetal bovine serum, streptomycin, and penicillin. The cells were then treated with 1 μM of a compound for 24 h. Whole cell extracts were prepared using an immunoprecipitation (IP) lysis buffer. Briefly, the cells were washed once in PBS, and the cell pellets were resuspended in the IP lysis buffer and incubated for 15 min on ice. Cells debris was removed by centrifugation and the cleared whole cell lysates were transferred to new tubes for further analysis.
For a western blot analysis, the whole cell protein extracts were separated on 12% SDS-polyacrylamide gels, transferred to nitrocellulose, and probed with primary antibodies. Membranes were subsequently washed and probed with IRDYE® secondary antibodies. The signals were detected using an ODYSSEY® Imaging System. The antibodies used in the assay included anti-KRAS; β-actin mouse monoclonal antibody; IRDYE® 680RD goat anti-rabbit antibody; and IRDYE® 800CW goat anti-mouse antibody.

T1 sequence (P01116 1-188 isoform P01116-2 G12C): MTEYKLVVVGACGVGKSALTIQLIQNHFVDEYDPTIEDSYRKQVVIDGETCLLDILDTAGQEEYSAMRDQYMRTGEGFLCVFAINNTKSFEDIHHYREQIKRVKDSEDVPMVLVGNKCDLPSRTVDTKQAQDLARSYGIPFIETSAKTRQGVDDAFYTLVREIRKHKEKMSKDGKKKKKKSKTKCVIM

IC50 (H358 cells; Homo sapiens, NCI-H358, 72 h, Table 4, read-out: Inhibition of H358 cells, IC50)	Inhibition of H358 cells, IC50 (class) (H358 cells; Table 4)	degradation of KRAS protein (KRAS protein)	SMILES	IC50 (H23 cells; Homo sapiens, NCI-H23, 72 h, read-out: Inhibition of H23 cells, IC50)	viability at 10 µM (MV-4-11 cells)	viability at 10 µM (MOLM-13 cells; Table 1)	viability at 1 µM (MOLM-13 cells)	viability at 10 µM (H358 cells; Homo sapiens, NCI-H358, 72 h)	Inhibition of H23 cells, IC50 (class) (H23 cells)	viability at 10 µM (MOLM-13 cells; Table 2)
990 nM			C=CC(=O)N1CCN(c2ncnc3c(F)c(-c4c(O)cccc4F)c(Cl)cc23)CC1 [A, 1-(4-(6-chloro-8-fluoro-7-(2-fluoro-6-hydroxyphenyl)quinazolin-4-yl)piperazin-1-yl)prop-2-en-1-one, reference compound]	4300 nM	25 to 50%	25 to 50%	≥ 50%	25 to 50%		
	C′		C=CC(=O)N1CCN(c2ncnc3c(F)c(-c4c(F)cccc4OCCOCCOCCC(=O)NCCNc4cccc5c4C(=O)N(C4CCC(=O)NC4=O)C5=O)c(Cl)cc23)CC1 (stereo not shown) [Compound 1, 3-(2-(2-(2-(4-(4-Acryloylpiperazin-1-yl)-6-chloro-8-fluoroquinazolin-7-yl)-3-fluorophenoxy)ethoxy)ethoxy)-N-(2-((2-(2,6-dioxopiperidin-3-yl)-1,3-dioxoisoindolin-4-yl)amino)ethyl)propanamide]		10 to 25%	25 to 50%	≥ 50%	25 to 50%	C′	
			C=CC(=O)N1CC(N2Cc3ccc(-c4cc(O)cc5ccccc45)cc3N(CCOCCOCCOCCNc3cccc4c3C(=O)N(C3CCC(=O)NC3=O)C4=O)C2=O)C1 (stereo not shown) [Compound 2, 4-((2-(2-(2-(2-(3-(1-Acryloylazetidin-3-yl)-7-(3-hydroxynaphthalen-1-yl)-2-oxo-3,4-dihydroquinazolin-1(2H)-yl)ethoxy)ethoxy)ethoxy)ethyl)amino)-2-(2,6-dioxopiperidin-3-yl)isoindoline-1,3-dione]		< 10%	10 to 25%		10 to 25%		
	A′	about 60%	C=CC(=O)N1CCN(c2ncnc3c(F)c(-c4c(F)cccc4OCCCCCCCN4CCC(c5cc(F)cc6c5CN(C5CCC(=O)NC5=O)C6=O)CC4)c(Cl)cc23)CC1 (stereo not shown) [Compound 36, 3-(4-(1-(7-(2-(4-(4-Acryloylpiperazin-1-yl)-6-chloro-8-fluoroquinazolin-7-yl)-3-fluorophenoxy)heptyl)piperidin-4-yl)-6-fluoro-1-oxoisoindolin-2-yl)piperidine-2,6-dione]						A′	< 10%
	B′		C=C(Cl)C(=O)N1CCN(c2ncnc3c(F)c(-c4c(F)cccc4OCCC4CCC(CCN5CCC(c6cc(F)cc7c6CN(C6CCC(=O)NC6=O)C7=O)CC5)C4)c(Cl)cc23)CC1 (stereo not shown) [Compound 130, 3-(4-(1-(2-(3-(2-(2-(6-Chloro-4-(4-(2-chloroacryloyl)piperazin-1-yl)-8-fluoroquinazolin-7-yl)-3-fluorophenoxy)ethyl)cyclopentyl)ethyl)piperidin-4-yl)-6-fluoro-1-oxoisoindolin-2-yl)piperidine-2,6-dione]						A′	< 10%
	D′		CCC(=O)N1CCN(c2ncnc3c(F)c(-c4c(F)cccc4OCCNCC(=O)N4CCC(C#Cc5cccc6c5CN(C5CCC(=O)NC5=O)C6=O)CC4)c(Cl)cc23)CC1 (stereo not shown) [Compound 133, 3-(4-((1-((2-(2-(6-Chloro-8-fluoro-4-(4-propionylpiperazin-1-yl)quinazolin-7-yl)-3-fluorophenoxy)ethyl)glycyl)piperidin-4-yl)-1λ^5-ethynyl)-1-oxoisoindolin-2-yl)piperidine-2,6-dione]						D′	≥ 50%
